Reference: patent US10239882B2, “Substituted 5-methyl-[1,2,4]triazolo[1,5-a]pyrimidin-2-amine compounds as PDE2 inhibitors” (DART NEUROSCIENCE (CAYMAN) LTD., priority 2014, dated 2019)
pIC50: −log10 of the molar value.

Each molecule was assayed against FLAG-tagged PDE2A1 (amino acids 2-941) (Homo sapiens (Human), UniProt O00408) (assay: IMAP TR-FRET PDE2A enzymatic assay). Conditions: 200 nM FAM-cAMP substrate, 11-point half-log dose-response.
Assay type: biochemical
From the text: An IMAP TR-FRET-based phosphodiesterase assay was developed using the PDE2A isoform. IMAP technology is based on high-affinity binding of phosphate by immobilized metal (MIII) coordination complexes on nanoparticles. The IMAP “binding reagent” recognizes phosphate groups on AMP or GMP generated from cAMP or cGMP in a PDE reaction. Cyclic nucleotides that carry a phosphodiester bond and not a free phosphate are not recognized by the binding reagent. The time resolved fluorescence resonance energy transfer (TR-FRET) is afforded by a Terbium (Tb)-Donor pre-bound to the nanoparticles. FRET occurs when the fluorescent-labeled AMP or GMP product of a PDE reaction binds and comes into close proximity to the Tb-Donor complex. Due to the long lifetime of Tb fluorescence, detection can be run in time-resolved mode to reduce or eliminate interference from auto-fluorescent compounds.
The IMAP TR-FRET PDE2A assay was performed in 1536-well white plates. A total of 250 pg per well of FLAG-tagged PDE2A1 (amino acids 2-941) was dispensed in 2.5 μL IMAP assay buffer consisting of 10 mM Tris pH 7.2, 10 mM MgCl2, 1 mM DTT, and 0.1% fatty acid free BSA. 30 nL of compound was then added from 1 mM stocks in DMSO using a Kalypsys Pintool. Plates were incubated for 5 min at room temperature before dispensing 1.5 μL of 533 nM FAM-cAMP substrate for a final concentration of 200 nM. Following a brief centrifugation, plates were incubated for 30 min at room temperature. The assay was terminated by adding 5 μL IMAP binding reagent Tb complex to each well which was prepared according to manufacturer's recommendations (Molecular Devices). Plates were incubated an additional 90 minutes at room temperature and read on a Viewlux plate reader. All compounds were solvated at a concentration of 10 mM in DMSO and tested in 11-point half-log dose-response. Curve fitting and IC50 values were determined using a standard four parameter fit.

FLAG-tagged PDE2A1 (amino acids 2-941), sequence (O00408 2-941): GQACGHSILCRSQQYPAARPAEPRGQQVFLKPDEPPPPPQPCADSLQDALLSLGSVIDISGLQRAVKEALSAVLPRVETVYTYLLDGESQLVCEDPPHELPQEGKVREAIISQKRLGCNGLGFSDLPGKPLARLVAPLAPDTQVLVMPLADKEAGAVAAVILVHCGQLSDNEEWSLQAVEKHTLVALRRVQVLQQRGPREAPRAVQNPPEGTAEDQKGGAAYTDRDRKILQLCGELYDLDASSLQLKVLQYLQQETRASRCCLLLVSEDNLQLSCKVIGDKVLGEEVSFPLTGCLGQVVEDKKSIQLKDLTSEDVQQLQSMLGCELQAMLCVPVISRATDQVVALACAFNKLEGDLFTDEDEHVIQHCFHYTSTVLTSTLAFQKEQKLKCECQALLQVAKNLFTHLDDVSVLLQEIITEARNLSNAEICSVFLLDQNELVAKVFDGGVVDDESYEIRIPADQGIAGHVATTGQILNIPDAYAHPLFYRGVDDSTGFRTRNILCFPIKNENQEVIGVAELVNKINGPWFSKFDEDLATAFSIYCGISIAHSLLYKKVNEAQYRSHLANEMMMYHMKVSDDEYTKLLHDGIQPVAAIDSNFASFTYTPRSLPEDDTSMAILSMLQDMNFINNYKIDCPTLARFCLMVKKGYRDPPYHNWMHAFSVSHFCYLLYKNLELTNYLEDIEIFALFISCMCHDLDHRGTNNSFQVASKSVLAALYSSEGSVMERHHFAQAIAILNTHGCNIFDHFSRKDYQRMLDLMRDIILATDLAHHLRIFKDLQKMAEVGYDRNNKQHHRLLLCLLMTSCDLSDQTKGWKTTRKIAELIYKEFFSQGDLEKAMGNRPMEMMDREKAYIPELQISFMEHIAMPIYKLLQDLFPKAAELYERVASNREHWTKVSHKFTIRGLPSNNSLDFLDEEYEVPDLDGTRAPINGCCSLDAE

Row | SMILES | PDE2 (PIC50)
1 | Cc1cc(C2CCOC2)n2nc(NCc3cn(-c4ccccc4)nc3C)nc2n1 (centres unmarked) [Example 72, 5-Methyl-N-[(3-methyl-1-phenyl-1H-pyrazol-4-yl)methyl]-7-(oxolan-3-yl)-[1,2,4]triazolo[1,5-a]pyrimidin-2-amine] | >7
2 | Cc1cc(C(C)C)n2nc(NCc3cn(-c4ccccc4)nc3C)nc2n1 [Example 74, 5-Methyl-N-[(3-methyl-1-phenyl-H-pyrazol-4-yl)methyl]-7-(propan-2-yl)-[1,2,4]triazolo[1,5-a]pyrimidin-2-amine] | >7
3 | Cc1cc(C2(C)CC2)n2nc(NCc3cn(-c4ccccc4)nc3C)nc2n1 [Example 76, 5-Methyl-N-[(3-methyl-1-phenyl-1H-pyrazol-4-yl)methyl]-7-(1-methylcyclopropyl)-[1,2,4]triazolo[1,5-a]pyrimidin-2-amine] | >7
4 | Cc1cc(C2CCOCC2)n2nc(NCc3ccc(F)c(Cl)c3F)nc2n1 [Example 78, N-[(3-Chloro-2,4-difluorophenyl)methyl]-5-methyl-7-(oxan-4-yl)-[1,2,4]triazolo[1,5-a]pyrimidin-2-amine] | >7
5 | Cc1cc(C2CCOCC2)n2nc(NCc3cc(Cl)c(F)cc3F)nc2n1 [Example 80, N-[(5-Chloro-2,4-difluorophenyl)methyl]-5-methyl-7-(oxan-4-yl)-[1,2,4]triazolo[1,5-a]pyrimidin-2-amine] | >7
6 | Cc1cc(C2CCOCC2)n2nc(NCc3cc(F)cc(Br)c3)nc2n1 [Example 81, N-[(3-Bromo-5-fluorophenyl)methyl]-5-methyl-7-(oxan-4-yl)-[1,2,4]triazolo[1,5-a]pyrimidin-2-amine] | >7
7 | Cc1cc(C2CCOCC2)n2nc(NCc3cc(-c4ccccc4)nn3C)nc2n1 [Example 82, 5-Methyl-N-[(1-methyl-3-phenyl-1H-pyrazol-5-yl)methyl]-7-(oxan-4-yl)-[1,2,4]triazolo[1,5-a]pyrimidin-2-amine] | >7
8 | Cc1cc(C2CCOCC2)n2nc(NCc3cccc(Br)c3F)nc2n1 [Example 83, N-[(3-Bromo-2-fluorophenyl)methyl]-5-methyl-7-(oxan-4-yl)-[1,2,4]triazolo[1,5-a]pyrimidin-2-amine] | >7
9 | Cc1cc(C2CCOCC2)n2nc(NCc3cc(F)cc(Cl)c3)nc2n1 [Example 84, N-[(3-Chloro-5-fluorophenyl)methyl]-5-methyl-7-(oxan-4-yl)-[1,2,4]triazolo[1,5-a]pyrimidin-2-amine] | >7
10 | Cc1cc(C2CCOCC2)n2nc(NCc3cc(C(F)(F)F)nn3C)nc2n1 [Example 85, 5-Methyl-N-{[1-methyl-3-(trifluoromethyl)-1H-pyrazol-5-yl]methyl}-7-(oxan-4-yl)-[1,2,4]triazolo[1,5-a]pyrimidin-2-amine] | >7

Same assay, conditions: 200 nM FAM-cAMP substrate, 11-point half-log dose-response, read-out: PDE2 (PIC50)

Row | SMILES | pIC50
11 | COc1ccc([C@H](C)Nc2nc3nc(C)cc(C4CCOCC4)n3n2)cc1 [Example 69, N-[(1S)-1-(4-Methoxyphenyl)ethyl]-5-methyl-7-(oxan-4-yl)-[1,2,4]triazolo[1,5-a]pyrimidin-2-amine] | 5.00 to 6.00
12 | Cc1cc(C2CCOCC2)n2nc(NCc3c(F)cncc3F)nc2n1 [Example 70, N-[(3,5-Difluoropyridin-4-yl)methyl]-5-methyl-7-(oxan-4-yl)-[1,2,4]triazolo[1,5-a]pyrimidin-2-amine] | 6.00 to 7.00
13 | Cc1cc(C2CCC2)n2nc(NCc3cn(-c4ccccc4)nc3C)nc2n1 [Example 71, 7-Cyclobutyl-5-methyl-N-[(3-methyl-1-phenyl-1H-pyrazol-4-yl)methyl]-[1,2,4]triazolo[1,5-a]pyrimidin-2-amine] | 6.00 to 7.00
14 | Cc1cc(C2CCOCC2)n2nc(NCc3cc(C#N)ccc3F)nc2n1 [Example 73, 4-Fluoro-3-({[5-methyl-7-(oxan-4-yl)-[1,2,4]triazolo[1,5-a]pyrimidin-2-yl]amino}methyl)benzonitrile] | 6.00 to 7.00
15 | COc1ccc(CNc2nc3nc(C)cc(C4(C)CC4)n3n2)cc1 [Example 75, N-[(4-Methoxyphenyl)methyl]-5-methyl-7-(1-methylcyclopropyl)-[1,2,4]triazolo[1,5-a]pyrimidin-2-amine] | 6.00 to 7.00
16 | COc1ccc(CNc2nc3nc(C)cc(C(C)(C)OC)n3n2)cc1 [Example 77, N-[(4-Methoxyphenyl)methyl]-7-(2-methoxypropan-2-yl)-5-methyl-[1,2,4]triazolo[1,5-a]pyrimidin-2-amine] | 5.00 to 6.00
17 | Cc1cc(C2CCOCC2)n2nc(NCc3cccc(C#N)c3)nc2n1 [Example 86, 3-({[5-Methyl-7-(oxan-4-yl)-[1,2,4]triazolo[1,5-a]pyrimidin-2-yl]amino}methyl)benzonitrile] | 6.00 to 7.00
